Data taken from US8623857B2, “N-phenyl imidazole carboxamide inhibitors of 3-phosphoinositide-dependent protein kinase-1” (Merck Sharp & Dohme Corp., priority 2010, dated 2014).

biological target: T1, recombinant human PDK1 (Homo sapiens, UniProt O15530); assay: PDK1 IMAP fluorescence polarization assay (inhibition of peptide substrate phosphorylation); format: biochemical; settings: Table 6; 10 nM PDK1 enzyme, 100 nM peptide substrate, 100 nM PIFtide, 2.5 uM ATP, 1.5 hours
T1 construct: containing amino acids 51-556 of the human PDK1 enzyme; made in house; host or cells: Sf9 insect cells
T1 sequence (O15530 51-556): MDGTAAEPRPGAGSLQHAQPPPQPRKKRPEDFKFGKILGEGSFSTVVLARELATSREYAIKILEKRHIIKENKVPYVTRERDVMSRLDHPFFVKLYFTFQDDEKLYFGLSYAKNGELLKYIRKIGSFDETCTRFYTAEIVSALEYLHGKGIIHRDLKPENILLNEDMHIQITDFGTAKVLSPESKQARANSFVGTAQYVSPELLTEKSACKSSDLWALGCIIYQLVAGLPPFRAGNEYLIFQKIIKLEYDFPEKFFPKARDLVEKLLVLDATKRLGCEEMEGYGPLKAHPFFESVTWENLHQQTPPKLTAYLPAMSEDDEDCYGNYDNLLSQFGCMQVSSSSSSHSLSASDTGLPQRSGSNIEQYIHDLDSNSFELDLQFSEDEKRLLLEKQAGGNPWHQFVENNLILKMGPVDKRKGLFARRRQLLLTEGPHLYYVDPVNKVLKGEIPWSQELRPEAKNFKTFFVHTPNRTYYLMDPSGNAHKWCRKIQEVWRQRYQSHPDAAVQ

Row | SMILES | IC50 [nM]
1 | Cc1cc(-c2c[nH]c(C(=O)Nc3cccc(F)c3N3CCC(C(=O)N4CCOCC4CO)CC3)n2)ccn1 (stereo not drawn) [Compound 80, N-[3-fluoro-2-[4-[[3-(hydroxymethyl)-4-morpholinyl]carbonyl]-1-piperidinyl]phenyl]-4-(2-methyl-4-pyridinyl)-1H-imidazole-2-carboxamide] | 251 to 1000
2 | NCC1CCN(c2c(F)cccc2NC(=O)c2nc(-c3cc(C(F)(F)F)n[nH]3)c[nH]2)CC1 [Compound 48, N-[2-[4-(aminomethyl)-1-piperidinyl]-3-fluorophenyl]-4-[3-(trifluoromethyl)-1H-pyrazol-5-yl]-1H-imidazole-2-carboxamide] | 251 to 1000
3 | Cc1nc(N)cc(-c2c[nH]c(C(=O)Nc3cccc(F)c3N3CCC(CN)CC3)n2)n1 [Compound 49, N-[2-[4-(aminomethyl)-1-piperidinyl]-3-fluorophenyl]-4-(6-amino-2-methyl-4-pyrimidinyl)-1H-imidazole-2-carboxamide] | 51 to 250
4 | COc1ccc(CNc2cc(-c3c[nH]c(C(=O)Nc4cccc(F)c4N4CCC(CN)CC4)n3)nc(N)n2)cc1OC [Compound 76, 4-[2-amino-6-[[(3,4-dimethoxyphenyl)methyl]amino]-4-pyrimidinyl]-N-[2-[4-(aminomethyl)-1-piperidinyl]-3-fluorophenyl]-1H-imidazole-2-carboxamide] | 251 to 1000
5 | NCC1CCN(c2c(F)cccc2NC(=O)c2nc(-c3cccc(CCO)c3)c[nH]2)CC1 [Compound 41, N-[2-[4-(aminomethyl)-1-piperidinyl]-3-fluorophenyl]-4-[3-(2-hydroxyethyl)phenyl]-1H-imidazole-2-carboxamide] | 51 to 250
6 | N[C@@H]1CCCN(c2c(F)cccc2NC(=O)c2nc(-c3ccnc(C4CC4)c3)c[nH]2)C1 [Compound 23, N-[2-(3(R)-amino-1-piperidinyl)-3-fluorophenyl]-4-(2-cyclopropyl-4-pyridinyl)-1H-imidazole-2-carboxamide] | 51 to 250
7 | Cc1cc(-c2c[nH]c(C(=O)Nc3cccc(F)c3N3CCC[C@@H](N)C3)n2)ccn1 [Compound 8, N-[2-(3(R)-amino-1-piperidinyl)-3-fluorophenyl]-4-(2-methyl-4-pyridinyl)-1H-imidazole-2-carboxamide] | 1 to 50
8 | Cc1cc(-c2c[nH]c(C(=O)Nc3cccc(F)c3N3CCC(C(=O)N(C)C)CC3)n2)ccn1 [Compound 61, 1-[2-fluoro-6-[[[4-(2-methyl-4-pyridinyl)-1H-imidazol-2-yl]carbonyl]amino]phenyl]-N,N-dimethyl-4-piperidinecarboxamide] | 1000 to 5000

same assay, conditions: Table 10; compounds 97-132

Row | SMILES | IC50 [nM]
9 | CNc1nc(-c2c[nH]c(C(=O)Nc3ccccc3N3CCNCC3)n2)cc(N2CCN(C(=O)OCc3ccccc3)CC2)n1 [Compound 105, benzyl 4-(2-(methylamino)-6-(2-(2-(piperazin-1-yl)phenylcarbamoyl)-1H-imidazol-4-yl)pyrimidin-4-yl)piperazine-1-carboxylate] | 1000 to 5000
10 | CNc1nc(-c2c[nH]c(C(=O)Nc3ccccc3OC3CCNCC3)n2)cc(N2CC(C(=O)NC3CCCCC3)CCC2C)n1 (racemic) [Compound 108, N-cyclohexyl-6-methyl-1-(2-(methylamino)-6-(2-(2-(piperidin-4-yloxy)phenylcarbamoyl)-1H-imidazol-4-yl)pyrimidin-4-yl)piperidine-3-carboxamide] | 1 to 50
11 | CNc1nc(-c2c[nH]c(C(=O)Nc3cccc(F)c3N3CCC(CN)CC3)n2)cc(N2C[C@H](C(=O)NC3CCCCC3)CC[C@@H]2C)n1 [Compound 116, (3R,6S)-1-(6-(2-(2-(4-(aminomethyl)piperidin-1-yl)-3-fluorophenylcarbamoyl)-1H-imidazol-4-yl)-2-(methylamino)pyrimidin-4-yl)-N-cyclohexyl-6-methylpiperidine-3-carboxamide] | 1 to 50
12 | CNc1nc(-c2c[nH]c(C(=O)Nc3ccccc3N3CCNCC3)n2)cc(N2CCOC(C(=O)NC3CCCCC3)C2)n1 (stereo not drawn) [Compound 106, N-cyclohexyl-4-(2-(methylamino)-6-(2-(2-(piperazin-1-yl)phenylcarbamoyl)-1H-imidazol-4-yl)pyrimidin-4-yl)morpholine-2-carboxamide] | 51 to 250
